Entries after “also recorded” stand apart in the source; their conditions may differ. Blank lines part the entries; values can stand above or below the molecule they belong to.
Experiments:
[1] = Observed chemical stability of the isolated compound; assay type: physicochemical; details: neutral (acid) form
Method: Compound 5d was obtained according to the general procedure described. It consists of reacting one molar equivalent of compound 2 with the corresponding carboxylate (L-phenylalanine sodium salt) under refluxing ethanol for 24 h. Under these conditions, the reaction proceeds by nucleophilic attack of the amino group on the carbonimidothioate group of compound 2, with the elimination of gaseous thiomethanol to obtain the sodium salt of SMe-isothiourea 5d, with a yield of 40%. […] Therefore, it was used only as an intermediate for the synthesis of its corresponding methyl ester (8d). The corresponding SMe-isothiureacarbozxylate methyl ester 8d was obtained in 56% yield using one molar equivalent of the SMe-isothiurea sodium salt, with 1.2 equivalents of iodomethane in DMF at room temperature for 24 h, following the general procedure described in the literature. […]
In a flask, L-phenylalanine (202 mg, 1.23 mmol) and NaOH (48.8 mg, 1.2 mmol) were placed in 10 mL of EtOH. […] It was kept at the same temperature for 24 h, and the reaction was monitored with TLC (Hex-AcOEt 7:3). […] Compound 5d was obtained as an acid in the form of a pale white crystal with a yield of 40.0% (182.5 mg, 0.5 mmol) and an mp = 92−94 °C; TLC Rf = 0.44 (Hex-AcOEt 7:3); HPLC tr = 10.7 min; ATR-FTIR νmax (cm^−1): 3155.8, 3067.3, 2925, 2855.6; HRMS (ESI+) 372.0840 m/z calculated for C18H18N3O2S2; found 372.0928 [M + H]^+.

[2] = test system: STZ-HFD-induced T2D Wistar rats; experiment: Subchronic evaluation in STZ-HFD-induced T2D model; assay type: in vivo, rat; design: HbA1c: unit not given here
Method: In vivo experiments were conducted in an acute and a subchronic model, where Wistar rats (180–220 g) were used. The study covered a total period of 10 weeks and was carried out under the Mexican Standard, and the “Guide for the Care and Use of Laboratory Animals” of the National Research Council and Health Institutes was followed.
At first, animals were housed in polypropylene cages under conditions of controlled temperature (20–25 °C), relative humidity (36–60%), and light/dark cycles, with water ad libitum. Before starting the experiment, they were given a one-week acclimatization period to adapt to their new habitat. Once finalized, animals were fed an HFD for 3 weeks to generate insulin resistance.
After this period, the animals fasted for 12 h and then were administered intraperitoneally with a single dose of 35 mg/Kg of STZ dissolved in a buffer of 0.1 M citrate, pH 4.5 (prepared on the same day of administration). Once administered, the hypercaloric diet was maintained, and 10% sucrose solution was placed on demand for 2 days.
One week after administration, postprandial blood glucose levels were measured by venipuncture using a glucometer. Those animals that maintained a glucose level between 200 and 400 mg/dL were included in the study.
(§1) Treatments were administered daily as described above, adjusting the dose according to the weight of the individuals. Fasting glucose levels (6 h fast) were monitored every 7 days until the end of treatments at week 10 (Figure 14). Halfway through the last week of treatment, the OGTT was performed, administering a dose of 1.5 g/Kg of glucose orally and subsequently monitoring capillary blood glucose at 0, 15, 30, 60, 90, and 120 min [62]. In addition, a 24-element blood chemistry was measured in a Celercare V automated dry chemistry analyzer (Tianjin MNCHIP Technologies Co., Ltd., Tianjin, China) at the beginning and end of the model. For this purpose, the blood samples were obtained from the tail of the rat.
(§2) At the end of the study, animals fasted for 12 h and were taken to a humane endpoint, where blood samples were obtained. These were kept at room temperature for 30 min and then centrifuged at 4000 RPM for 15 min at 4 °C. Finally, the serum was used to perform 24-element blood chemistry and quantify Trolox-equivalent TAC [86], TNF-α [87], and IL-6 levels using commercial kits from Merck (Darmstadt, Germany), Sigma-Aldrich (St. Louis, MO, USA), Cat. No. MAK334-1KT, RAB0479-1KT, and RAB0311-1KT, respectively. In addition, insulin was quantified using the Rat Ins1/Insulin ELISA Kit, from Sigma-Aldrich, No. Cat. RAB0904-1KT [89] to determine the HOMA-IR index. All kits were performed according to the manufacturer’s instructions without modifications.

[3] = test system: STZ-HFD-induced T2D Wistar rats; experiment: 24-element blood chemistry in STZ-HFD-induced T2D model; assay type: in vivo, rat; design: GGT / TBA / AMY / TG / T-CHOL / GLU: unit not given here; details: for ALP / ALT / AST / CK: in U/L (unit assumed); for ALB / GLO / TP: in g/dL (unit assumed); for BUN / CRE / Ca / Mg / P / TBIL / UREA: in mg/dL (unit assumed); for tCO2: in mmol/L (unit assumed); for TP: mean ± SEM, n = 4
Method: as §1, §2

[4] = test system: STZ-HFD-induced T2D Wistar rats; experiment: Ex vivo serum total antioxidant capacity (Trolox equivalent); assay type: in vivo, rat
Method: as §2

[5] = test system: IL-6; experiment: Ex vivo serum IL-6 quantification; assay type: in vivo, rat
Method: as §2

[6] = test system: TNF-α; experiment: Ex vivo serum TNF-α quantification; assay type: in vivo, rat
Method: as §2

[7] = after the induction of T2D, before treatment
[8] = Table S11, After 5 weeks of treatment
[9] = serum, end of treatment, mean ± SEM, n = 4

SMILES: CS/C(=N/c1nc2ccccc2s1)N[C@@H](Cc1ccccc1)C(=O)O [5d, (E)-((benzo[d]thiazol-2-ylimino)(methylthio)methyl)-L-phenylalanine]
chemical stability [1]: decomposes easily under ambient conditions; also recorded: decomposes, even at low temperatures

A/G ([3]; Final): 1.43 ± 0.05 | AMY ([3]; Final): 405.75 ± 25.93 | BUN/CRE ([3]; Final): 28.00 ± 3.24 | GGT ([3]; Final): 1.25 ± 0.19 | TBA ([3]; Final): 72.60 ± 16.24 | ALP ([3]; Final): 274.00 ± 58.19 | CK ([3]; Final): > 3000 | ALB ([3]; Final): 3.78 ± 0.12 | GLO ([3]; Final): 2.65 ± 0.12 | BUN ([3]; Final): 14.81 ± 1.23 | CRE ([3]; Final): 0.54 ± 0.04 | Ca ([3]; Final): 9.18 ± 0.08 | Mg ([3]; Final): 2.40 ± 0.05 | P ([3]; Final): 8.30 ± 0.47 | TBIL ([3]; Final): 0.16 ± 0.02 | UREA ([3]; Final): 31.58 ± 2.78 | tCO2 ([3]; Final): 18.00 ± 0.41 | TP ([3]; Final): 6.43 ± 0.22 | A/G ([3]; Initial): 1.45 ± 0.03 | AMY ([3]; Initial): 369.75 ± 26.22 | BUN/CRE ([3]; Initial): 25.75 ± 2.59 | GGT ([3]; Initial): 0.80 ± 0.25 | TBA ([3]; Initial): 76.43 ± 13.25 | ALP ([3]; Initial): 271.25 ± 44.69 | CK ([3]; Initial): 509 ± 118.04 | ALB ([3]; Initial): 3.85 ± 0.06 | GLO ([3]; Initial): 2.65 ± 0.10 | BUN ([3]; Initial): 14.22 ± 1.51 | CRE ([3]; Initial): 0.56 ± 0.03 | Ca ([3]; Initial): 9.30 ± 0.20 | Mg ([3]; Initial): 2.09 ± 0.03 | P ([3]; Initial): 7.55 ± 0.87 | TBIL ([3]; Initial): 0.2 ± 0.02 | UREA ([3]; Initial): 30.40 ± 3.28 | tCO2 ([3]; Initial): 13.75 ± 0.85 | TP ([3]; Initial): 6.5 ± 0.15
SMILES: CCc1ccc(CCOc2ccc(CC3SC(=O)NC3=O)cc2)nc1 (centres unmarked) [PGZ, pioglitazone, reference compound]
HOMA-IR ([2]; After 5 weeks of treatment): 2.32 ± 0.407 | R-QUICKI ([2]; After 5 weeks of treatment): 0.339 ± 0.008 | HbA1c ([2]; After 5 weeks of treatment, mean ± SEM, n = 4): 9.633 ± 1.601 | HOMA-IR ([2]; Final (end of 5 weeks treatment), PGZ 30 mg/Kg, 8d 32 mg/Kg, mean ± SEM, n = 4): 2.32 ± 0.41 | HOMA-IR ([2]; Initial (beginning of treatment), PGZ 30 mg/Kg, 8d 32 mg/Kg, mean ± SEM, n = 4): 2.59 ± 0.34 | HOMA-IR [2, 7]: 2.59 ± 0.337 | R-QUICKI [2, 7]: 0.333 ± 0.007 | HbA1c ([2]; after the induction of T2D, before treatment, mean ± SEM, n = 4): 8.433 ± 0.088 | adipogenic effect at necropsy ([2]; after treatment): clear adipogenic effect | polydipsia (water consumption) ([2]; daily oral treatment): decreasing the polydipsia after the first week of treatment | redistribution of adipose tissue from visceral to subcutaneous fat ([2]; necropsy): marked | AST/ALT ([3]; Final): 4.61 ± 0.51 | GLU ([3]; Final): 275.25 ± 84.75 | T-CHOL ([3]; Final): 98.00 ± 5.57 | TG ([3]; Final): 151.00 ± 10.42 | ALT ([3]; Final): 75.75 ± 6.73 | AST ([3]; Final): 343.50 ± 39.59 | AST/ALT ([3]; Initial): 1.99 ± 0.38 | GLU ([3]; Initial): 203.25 ± 19.84 | T-CHOL ([3]; Initial): 81.00 ± 1.96 | TG ([3]; Initial): 108.13 ± 6.46 | ALT ([3]; Initial): 63.5 ± 6.5 | AST ([3]; Initial): 119.25 ± 7.96 | effect on total antioxidant capacity (TAC) [4]: partial recovery of TAC | TAC Equivalent to Trolox [4, 8]: 97.75 ± 1.29 µM | TAC Equivalent to Trolox [4, 9]: 97.75 ± 1.29 µM | effect on IL-6 and TNF-α levels ([5]; IL-6 and TNF-α together): significantly reduced IL-6 and TNF-α levels | IL-6 [5, 8]: 234.25 ± 52.05 pg/mL | IL-6 [5, 9]: 234.25 ± 52.05 pg/mL | TNF-α [6, 8]: 3000.53 ± 519.24 pg/mL | TNF-α [6, 9]: 3000.53 ± 519.24 pg/mL

Source: PMC12388506, “Preclinical Evaluation of 2-Aminobenzothiazole Derivatives: In Silico, In Vitro, and Preliminary In Vivo Studies as Diabetic Treatments and Their Complications” (Molecules, 2025)
